How the values were obtained:
RAW264.7 [1] = experiment: Antiinflammatory activity in LPS-induced mouse RAW264.7 cells assessed as reduction in COX-2 level at 25 uM pretreated for 1 hr followed by LPS stimulation and measured after 49 hrs by ELISA relative to control; assay type: functional; set-up: scale not given: the % may be the effect or the level left; conditions: time 50 hrs
RAW264.7 [2] = experiment: Antiinflammatory activity in LPS-induced mouse RAW264.7 cells assessed as reduction in […] level at 25 uM pretreated for 1 hr followed by LPS stimulation and measured after 49 hrs by ELISA relative to control; assay type: functional; set-up: scale not given: the % may be the effect or the level left; conditions: time 50 hrs
[3] = Induction of glucose-stimulated insulin secretion in rat INS1 cells assessed as increase in insulin secretion at 25 uM pretreated for 48 hrs followed by glucose stimulation and measured after 1 hr by ELISA; assay type: functional
[4] = Acute toxicity in ip dosed NIH mouse expressing aP2-SREBP-1c assessed as lethal dose measured for 14 days by modified karber's method; assay type: organism-based; conditions: in vivo, time 14 day
[5] = Cytotoxicity against mouse 3T3-L1 assessed as reduction in cell viability measured after 48 hrs by CCK-8 assay; assay type: toxicity, cell-based; conditions: 3T3-L1 cells
Coxsackievirus B2 = experiment: Antiviral activity against Human Coxsackievirus B2 infected in African green monkey Vero cells assessed as reduction in virus-induced cytopathic effect incubated for 48 hrs by microscopic analysis; assay type: functional, organism-based; conditions: Enterovirus B
Coxsackievirus B3 = experiment: Antiviral activity against Coxsackievirus B3 infected in African green monkey Vero cells assessed as reduction in virus-induced cytopathic effect incubated for 48 hrs by microscopic analysis; assay type: functional, organism-based; conditions: Enterovirus B
Coxsackievirus B4 = experiment: Antiviral activity against Coxsackievirus B4 infected in African green monkey Vero cells assessed as reduction in virus-induced cytopathic effect incubated for 48 hrs by microscopic analysis; assay type: functional, organism-based; conditions: Enterovirus B
Coxsackievirus B5 = experiment: Antiviral activity against Coxsackievirus B5 infected in African green monkey Vero cells assessed as reduction in virus-induced cytopathic effect incubated for 48 hrs by microscopic analysis; assay type: functional, organism-based; conditions: Enterovirus B
Coxsackievirus B6 = experiment: Antiviral activity against Human Coxsackievirus B6 infected in African green monkey Vero cells assessed as reduction in virus-induced cytopathic effect incubated for 48 hrs by microscopic analysis; assay type: functional, organism-based; conditions: Enterovirus B
HL-60 [6] = experiment: Antiproliferative activity against human HL-60 cells incubated for 48 hrs by MTT assay; assay type: functional, cell-based; conditions: HL-60, 48 h
HL-60 [7] = experiment: Potency index, ratio of berberine IC50 to test compound IC50 for antiproliferative activity against human HL-60 cells incubated for 48 hrs by MTT assay; assay type: functional

In the case of `COc1ccc2cc3[n+](cc2c1OCc1nc(C)nc(N(C)C)n1)CCc1cc2c(cc1-3)OCO2.[Cl-]`, the Activity (RAW264.7 [1]) is reported as 25.42%, the Activity (RAW264.7 [2]) is reported as 36.41% and the Activity [3] is reported as 143%.

Compound `C=CCc1ccc(O)c(-c2cc(CC=C)ccc2OCCOc2c(OC)ccc3cc4[n+](cc23)CCc2cc3c(cc2-4)OCO3)c1.[Cl-]` has an LD50 at 336 h [4] of 279 mg/kg and an IC50 at 48 h [5] of 11.5 µM.

Compound `COc1cc2c(cc1OCCOCCN)CC[n+]1cc3c(OC)c(OC)ccc3cc1-2` has an IC50 (Coxsackievirus B2) of 3.08 µM, an IC50 (Coxsackievirus B3) of 3.08 µM and an IC50 (Coxsackievirus B4) of 3.08 µM. The IC50 (Coxsackievirus B5) was 3.08 µM and the IC50 (Coxsackievirus B6) was 3.08 µM.

For `COc1ccc2cc3[n+](cc2c1OCCCBr)CCc1cc2c(cc1-3)OCO2.[Cl-]`, the IC50 (HL-60 [6]) was 0.7 µM and the “Ratio IC50” value (HL-60 [7]) was 30.
